# Test results as given in ChEMBL document CHEMBL1128947, “Asiaticoside mimetics as wound healing agent” (1996).
# How the values were obtained:
# [1] = species: Rattus norvegicus; assay: Effect on the wound healing in rats at 7th postoperative day by measuring tensile strength of skin strips from the wound segments; assay type: functional
# [2] = species: Rattus norvegicus; assay: Tested for its effect on the wound healing in rats at 7th postoperative day by measuring tensile strength of skin strips from the wound segments; value relative to control(100); assay type: functional
smiles,measurement,setting,value
COCCOCOC(=O)[C@]12CC[C@@H](C)[C@H](C)C1C1=CCC3[C@@]4(C)C[C@@H](O)[C@H](O)[C@@](C)(CO)C4CC[C@@]3(C)[C@]1(C)CC2 (stereo not given in full),Tensile strength,[1],398 g cm**-2
same,Relative value,[2],139
CCCCOC(C)OC(=O)[C@]12CC[C@@H](C)[C@H](C)C1C1=CCC3[C@@]4(C)C[C@@H](O)[C@H](O)[C@@](C)(CO)C4CC[C@@]3(C)[C@]1(C)CC2 (stereo not given in full),Tensile strength,[1],362 g cm**-2
same,Relative value,[2],126
C[C@@H]1CC[C@]2(C(=O)O)CC[C@]3(C)C(=CCC4[C@@]5(C)C[C@@H](O)[C@H](O)[C@@](C)(CO)C5CC[C@]43C)C2[C@H]1C (stereo not given in full),Tensile strength,[1],418 g cm**-2
same,Relative value,[2],146
C[C@@H]1CC[C@]2(C(=O)OC3CCCCO3)CC[C@]3(C)C(=CCC4[C@@]5(C)C[C@@H](O)[C@H](O)[C@@](C)(CO)C5CC[C@]43C)C2[C@H]1C (stereo not given in full),Tensile strength,[1],481 g cm**-2
same,Relative value,[2],168
COCOC(=O)[C@]12CC[C@@H](C)[C@H](C)C1C1=CCC3[C@@]4(C)C[C@@H](O)[C@H](O)[C@@](C)(CO)C4CC[C@@]3(C)[C@]1(C)CC2 (stereo not given in full),Tensile strength,[1],404 g cm**-2
same,Relative value,[2],141
CC(=O)OC[C@@]1(C)C2CC[C@]3(C)C(CC=C4C5[C@@H](C)[C@H](C)CC[C@]5(C(=O)OC5CCCCO5)CC[C@]43C)[C@@]2(C)C[C@@H](OC(C)=O)[C@@H]1OC(C)=O (stereo not given in full),Tensile strength,[1],393 g cm**-2
same,Relative value,[2],173
CCOCOC(=O)[C@]12CC[C@@H](C)[C@H](C)C1C1=CCC3[C@@]4(C)C[C@@H](O)[C@H](O)[C@@](C)(CO)C4CC[C@@]3(C)[C@]1(C)CC2 (stereo not given in full),Tensile strength,[1],476 g cm**-2
same,Relative value,[2],166
COCCOCOC(=O)[C@]12CC[C@@H](C)[C@H](C)C1C1=CCC3[C@@]4(C)C[C@@H](OC(C)=O)[C@H](OC(C)=O)[C@@](C)(COC(C)=O)C4CC[C@@]3(C)[C@]1(C)CC2 (stereo not given in full),Tensile strength,[1],320 g cm**-2
same,Relative value,[2],141
CCOCOC(=O)[C@]12CC[C@@H](C)[C@H](C)C1C1=CCC3[C@@]4(C)C[C@@H](OC(C)=O)[C@H](OC(C)=O)[C@@](C)(COC(C)=O)C4CC[C@@]3(C)[C@]1(C)CC2 (stereo not given in full),Tensile strength,[1],487 g cm**-2
same,Relative value,[2],215
CCOC(C)OC(=O)[C@]12CC[C@@H](C)[C@H](C)C1C1=CCC3[C@@]4(C)C[C@@H](O)[C@H](O)[C@@](C)(CO)C4CC[C@@]3(C)[C@]1(C)CC2 (stereo not given in full),Tensile strength,[1],387 g cm**-2
same,Relative value,[2],135
C[C@@H]1CC[C@]2(C(=O)OCOCc3ccccc3)CC[C@]3(C)C(=CCC4[C@@]5(C)C[C@@H](O)[C@H](O)[C@@](C)(CO)C5CC[C@]43C)C2[C@H]1C (stereo not given in full),Tensile strength,[1],327 g cm**-2
same,Relative value,[2],114
COCOC(=O)[C@]12CC[C@@H](C)[C@H](C)C1C1=CCC3[C@@]4(C)C[C@@H](OC(C)=O)[C@H](OC(C)=O)[C@@](C)(COC(C)=O)C4CC[C@@]3(C)[C@]1(C)CC2 (stereo not given in full),Tensile strength,[1],330 g cm**-2
same,Relative value,[2],145
CC(=O)OC[C@@]1(C)C2CC[C@]3(C)C(CC=C4C5[C@@H](C)[C@H](C)CC[C@]5(C(=O)OC5CCCO5)CC[C@]43C)[C@@]2(C)C[C@@H](OC(C)=O)[C@@H]1OC(C)=O (stereo not given in full),Tensile strength,[1],331 g cm**-2
same,Relative value,[2],145
CCCCCCCCOCOC(=O)[C@]12CC[C@@H](C)[C@H](C)C1C1=CCC3[C@@]4(C)C[C@@H](OC(C)=O)[C@H](OC(C)=O)[C@@](C)(COC(C)=O)C4CC[C@@]3(C)[C@]1(C)CC2 (stereo not given in full),Tensile strength,[1],310 g cm**-2
same,Relative value,[2],137
CCCCCCCCOCOC(=O)[C@]12CC[C@@H](C)[C@H](C)C1C1=CCC3[C@@]4(C)C[C@@H](O)[C@H](O)[C@@](C)(CO)C4CC[C@@]3(C)[C@]1(C)CC2 (stereo not given in full),Tensile strength,[1],468 g cm**-2
same,Relative value,[2],163
